Patent publication US20210275514A1, “COMPOUNDS FOR USE IN TREATING KIDNEY DISORDERS” (Hoffmann-La Roche Inc., priority 2018, published 2021)
Entries after “also recorded” stand apart in the source; their conditions may differ.

System: ABCA1
Assay: ABCA1 expression by western blot in differentiated podocytes
Assay type: cell-based, human
Conditions: 18 h
Experimental: Podocytes differentiated for 14 days were starved in RPMI-0.2% FBS for 18 h and then treated with freshly prepared dilutions of compounds in full media for 18 h at 37° C. and 5% CO2. Compound concentrations of 1 μM, 5 μM and 10 μM were evaluated. Cells were then washed with PBS and lysed with 1× cell lysis buffer (Cell Signaling) supplemented with protease and phosphatase inhibitor cocktails (Roche). Total protein content was determined by BCA method (Pierce, Thermoscientific). ABCA1 expression was analyzed by western blot.
Lysates, or cell fractions were incubated with buffer sample at 55° C. for 10 min under reducing conditions. A total of […] of protein in lysates, and one third of the volume collected in cell fraction preps, were separated by SDSPAGE in 4-20% gels (Biorad) and proteins were then transferred to PVDF membranes. Membranes were blocked with 5% milk and blotted with protein-specific antibodies for 18 h at 4° C. The following antibodies were used: mouse anti-ABCA1 (Abcam; 1:1,000), rabbit anti-GAPDH antibody (Millipore; 1:10,000), rabbit anti-MEK and anti-Na^+/K^+ ATPase (Cell Signaling; 1:1,000). After washing with PBS-T, membranes were incubated with anti-mouse and anti-rabbit specific antibodies conjugated to HRP (Promega) 1:10,000 in 5% milk. Membranes were washed and signal was developed using Western bright ECL substrate (Advansta).

| SMILES | ABCA1 expression (western blot, whole cell lysates) (1 μM, 5 μM and 10 μM evaluated) | ABCA1 expression (western blot, whole cell lysates) (doses as low as 1 uM, FIG. 4A) |
| --- | --- | --- |
| O=C(Nc1cncnc1)c1ccc(OCC(F)(F)F)c(-c2ccc(Cl)cc2)n1 [Cpd F, 6-(4-chlorophenyl)-N-(pyrimidin-5-yl)-5-(2,2,2-trifluoroethoxy)picolinamide] | only Cpd A, and Cpd G, increased ABCA1 expression | – |
| O=C(O)c1ccc(-c2nnc([C@](F)([C@H]3Cc4[nH]c5ccc(Cl)cc5c4C3)S(=O)(=O)c3cccc(Br)c3)o2)cc1 (racemic) [Cpd D, 4-{5-[(RS)-(3-Bromo-benzenesulfonyl)-((SR)-7-chloro-1,2,3,4-tetrahydro-cyclopenta[b]indol-2-yl)-fluoro-methyl]-[1,3,4]oxadiazol-2-yl}-benzoic acid] | – | strong induction; also recorded: markedly increased |
| Cc1nnc([C@](F)([C@H]2Cc3[nH]c4ccc(Cl)cc4c3C2)S(=O)(=O)c2ccccc2)o1 [Cpd E, (R)-2-[(S)-Benzenesulfonyl-fluoro-(5-methyl-[1,3,4]oxadiazol-2-yl)-methyl]-7-chloro-1,2,3,4-tetrahydro-cyclopenta[b]indole] | – | strong induction; also recorded: markedly increased |
